According to patent US11304944B2, “MetAP2 inhibitors and methods of treating obesity” (SynDevRx, Inc., priority 2013, dated 2022):

What was measured:
DIO Levin rats = assay: Oral Glucose Tolerance Test (OGTT) Day 48 and HOMA-ir in DIO Levin rats; assay type: in vivo; settings: for Blood Glucose, Time 15 / Blood Glucose, Time 30 / Blood Glucose, Time 60 / Blood Glucose, Time 90 / Blood Glucose, Time 120: OGTT; for BW: at OGTT;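 on Blood Glucose pre-OGTT: blood glucose in mg/dL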;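 on Blood Glucose, Time 120: blood glucose in mg/dL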;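 on Blood Glucose, Time 15: blood glucose in mg/dL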;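 on Blood Glucose, Time 30: blood glucose in mg/dL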;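 on Blood Glucose, Time 60: blood glucose in mg/dL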;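 on Blood Glucose, Time 90: blood glucose in mg/dL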
Experimental: Animals were weighed every other day. Food consumption was measured weekly. On an approximately weekly basis throughout the study, blood samples were taken for assessment of serum chemistries including glucose and insulin. On Day 48 all rats underwent a 4 hour fasted Oral Glucose Tolerance Test (OGTT). Animals were dosed orally (per os, PO) at 8 mL/kg 25% glucose (2 g/kg). On day 68, gross pathology was performed to determine body composition.

DIO C57Bl6 mice = assay: Efficacy of various compounds in DIO mouse model (body weight versus time); assay type: in vivo; settings: for BW change vs. vehicle: day 26
Experimental: On study day 1 animals were randomized into groups so that the average weight of the mice in each group was 47 g. The mice were treated with either phosphate buffered saline (vehicle), or compounds as listed in Table 19 dissolved in vehicle (dorsal, subcutaneous administration).

[1] = 0.6 mg/kd (so in the source) q4d sc
[2] = 03 mg/kg (so in the source) q4d sc

In the case of “poly[HPMA-co-MA-GFLG-N-(trans-4-aminocyclohexyl)carbamoylfumagillol] [Compound 16]”, the “HOMA-ir (Insulin Sensitivity) 15 min” value (DIO Levin rats; 0.3 mg/kg q4d sc) is reported as 40.1, the “HOMA-ir (Insulin Sensitivity) 30 min” value (DIO Levin rats; 0.3 mg/kg q4d sc) is reported as 10.8 and the “HOMA-ir (Insulin Sensitivity) Pre-dose” value (DIO Levin rats; 0.3 mg/kg q4d sc) is reported as 14.6. For the same substance, the “Blood Glucose pre-OGTT” value (DIO Levin rats; [1]) was 121 mg/dL, the “Blood Glucose, Time 15” value (DIO Levin rats; [1]) was 150 mg/dL and the “Blood Glucose, Time 30” value (DIO Levin rats; [1]) was 148 mg/dL. The “Blood Glucose, Time 60” value (DIO Levin rats; [1]) was 149 mg/dL, the “Blood Glucose, Time 90” value (DIO Levin rats; [1]) was 143 mg/dL and the “Blood Glucose, Time 120” value (DIO Levin rats; [1]) was 150 mg/dL. The BW (DIO Levin rats; [1]) was 662 g, the “HOMA-ir (Insulin Sensitivity) 15 min” value (DIO Levin rats; 1 mg/kg q4d sc) was 50.1 and the “HOMA-ir (Insulin Sensitivity) 30 min” value (DIO Levin rats; 1 mg/kg q4d sc) was 18.1. For the same substance, the “HOMA-ir (Insulin Sensitivity) Pre-dose” value (DIO Levin rats; 1 mg/kg q4d sc) was 16.4, the “Blood Glucose pre-OGTT” value (DIO Levin rats; [2]) was 121 mg/dL and the “Blood Glucose, Time 15” value (DIO Levin rats; [2]) was 156 mg/dL. The “Blood Glucose, Time 30” value (DIO Levin rats; [2]) was 145 mg/dL, the “Blood Glucose, Time 60” value (DIO Levin rats; [2]) was 157 mg/dL and the “Blood Glucose, Time 90” value (DIO Levin rats; [2]) was 149 mg/dL. For the same substance, the “Blood Glucose, Time 120” value (DIO Levin rats; [2]) was 147 mg/dL, the BW (DIO Levin rats; [2]) was 697 g and the “Blood Glucose pre-OGTT” value (DIO Levin rats; 3 mg/kg q4d sc) was 120 mg/dL. The “HOMA-ir (Insulin Sensitivity) 15 min” value (DIO Levin rats; 3 mg/kg q4d sc) was 13.7, the “HOMA-ir (Insulin Sensitivity) 30 min” value (DIO Levin rats; 3 mg/kg q4d sc) was 4.6 and the “HOMA-ir (Insulin Sensitivity) Pre-dose” value (DIO Levin rats; 3 mg/kg q4d sc) was 9.2. For the same substance, the “Blood Glucose, Time 15” value (DIO Levin rats; 3 mg/kg q4d sc) was 157 mg/dL, the “Blood Glucose, Time 30” value (DIO Levin rats; 3 mg/kg q4d sc) was 144 mg/dL and the “Blood Glucose, Time 60” value (DIO Levin rats; 3 mg/kg q4d sc) was 140 mg/dL. For the same substance, the “Blood Glucose, Time 90” value (DIO Levin rats; 3 mg/kg q4d sc) was 127 mg/dL, the “Blood Glucose, Time 120” value (DIO Levin rats; 3 mg/kg q4d sc) was 129 mg/dL and the BW (DIO Levin rats; 3 mg/kg q4d sc) was 582 g. For the same substance, the “Blood Glucose pre-OGTT” value (DIO Levin rats; 6 mg, q7d sc) was 128 mg/dL, the “HOMA-ir (Insulin Sensitivity) 15 min” value (DIO Levin rats; 6 mg, q7d sc) was 37.2 and the “HOMA-ir (Insulin Sensitivity) 30 min” value (DIO Levin rats; 6 mg, q7d sc) was 3.5. For the same substance, the “HOMA-ir (Insulin Sensitivity) Pre-dose” value (DIO Levin rats; 6 mg, q7d sc) was 12.0, the “Blood Glucose, Time 15” value (DIO Levin rats; 6 mg, q7d sc) was 161 mg/dL and the “Blood Glucose, Time 30” value (DIO Levin rats; 6 mg, q7d sc) was 141 mg/dL. For the same substance, the “Blood Glucose, Time 60” value (DIO Levin rats; 6 mg, q7d sc) was 145 mg/dL, the “Blood Glucose, Time 90” value (DIO Levin rats; 6 mg, q7d sc) was 145 mg/dL and the “Blood Glucose, Time 120” value (DIO Levin rats; 6 mg, q7d sc) was 138 mg/dL. The BW (DIO Levin rats; 6 mg, q7d sc) was 604 g, the “Group Avg. BW, Study Day 1” value (DIO C57Bl6 mice; 2 mg/kg q4d sc) was 47.0 g and the “Group Avg. BW, Study Day 7” value (DIO C57Bl6 mice; 2 mg/kg q4d sc) was 43.4 g. For the same substance, the “Group Avg. BW, Study Day 15” value (DIO C57Bl6 mice; 2 mg/kg q4d sc) was 43.2 g, the “Group Avg. BW, Study Day 21” value (DIO C57Bl6 mice; 2 mg/kg q4d sc) was 42.0 g and the “Group Avg. BW, Study Day 26” value (DIO C57Bl6 mice; 2 mg/kg q4d sc) was 41.7 g. For the same substance, the “BW change vs. vehicle” value (DIO C57Bl6 mice; 2 mg/kg q4d sc) was −9.6%, the “Group Avg. BW, Study Day 1” value (DIO C57Bl6 mice; 12 mg/kg q8d sc) was 47.0 g and the “Group Avg. BW, Study Day 7” value (DIO C57Bl6 mice; 12 mg/kg q8d sc) was 41.3 g. For the same substance, the “Group Avg. BW, Study Day 15” value (DIO C57Bl6 mice; 12 mg/kg q8d sc) was 38.3 g, the “Group Avg. BW, Study Day 21” value (DIO C57Bl6 mice; 12 mg/kg q8d sc) was 36.2 g and the “Group Avg. BW, Study Day 26” value (DIO C57Bl6 mice; 12 mg/kg q8d sc) was 38.0 g. For the same substance, the “BW change vs. vehicle” value (DIO C57Bl6 mice; 12 mg/kg q8d sc) was −17.5%.
